Laboratory results: patent US20230257396A1, “MACROCYCLES AND THEIR USE” (BLOSSOMHILL THERAPEUTICS, INC., priority 2020, published 2023)
Changes are numbered by the printed parent chain.

Legend:
Assay in all cases: KINOMEscan kinase binding assay (Eurofins/DiscoveRx), % Ctrl
kinases [1] = biological target: T1, kinases (Homo sapiens, UniProt P00533)
T1 construct: purchased Eurofins/DiscoveRx; host or cells: E. coli BL21-derived host (T7 phage display) for most kinases; HEK-293 for the rest
Method in brief: (§1)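 Competition binding, 1 h RT: phage-tagged or HEK-293-expressed DNA-tagged kinase + immobilized ligand + compound. Eluate kinase by qPCR. % Ctrl = (test − positive ctrl)/(negative ctrl − positive ctrl) × 100; lower means stronger binding.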

kinases [2] = biological target: T2, kinases (Homo sapiens, UniProt P16234)
T2 construct: purchased Eurofins/DiscoveRx; host or cells: E. coli BL21-derived host (T7 phage display) for most kinases; HEK-293 for the rest
T2 sequence (P16234 24-1089): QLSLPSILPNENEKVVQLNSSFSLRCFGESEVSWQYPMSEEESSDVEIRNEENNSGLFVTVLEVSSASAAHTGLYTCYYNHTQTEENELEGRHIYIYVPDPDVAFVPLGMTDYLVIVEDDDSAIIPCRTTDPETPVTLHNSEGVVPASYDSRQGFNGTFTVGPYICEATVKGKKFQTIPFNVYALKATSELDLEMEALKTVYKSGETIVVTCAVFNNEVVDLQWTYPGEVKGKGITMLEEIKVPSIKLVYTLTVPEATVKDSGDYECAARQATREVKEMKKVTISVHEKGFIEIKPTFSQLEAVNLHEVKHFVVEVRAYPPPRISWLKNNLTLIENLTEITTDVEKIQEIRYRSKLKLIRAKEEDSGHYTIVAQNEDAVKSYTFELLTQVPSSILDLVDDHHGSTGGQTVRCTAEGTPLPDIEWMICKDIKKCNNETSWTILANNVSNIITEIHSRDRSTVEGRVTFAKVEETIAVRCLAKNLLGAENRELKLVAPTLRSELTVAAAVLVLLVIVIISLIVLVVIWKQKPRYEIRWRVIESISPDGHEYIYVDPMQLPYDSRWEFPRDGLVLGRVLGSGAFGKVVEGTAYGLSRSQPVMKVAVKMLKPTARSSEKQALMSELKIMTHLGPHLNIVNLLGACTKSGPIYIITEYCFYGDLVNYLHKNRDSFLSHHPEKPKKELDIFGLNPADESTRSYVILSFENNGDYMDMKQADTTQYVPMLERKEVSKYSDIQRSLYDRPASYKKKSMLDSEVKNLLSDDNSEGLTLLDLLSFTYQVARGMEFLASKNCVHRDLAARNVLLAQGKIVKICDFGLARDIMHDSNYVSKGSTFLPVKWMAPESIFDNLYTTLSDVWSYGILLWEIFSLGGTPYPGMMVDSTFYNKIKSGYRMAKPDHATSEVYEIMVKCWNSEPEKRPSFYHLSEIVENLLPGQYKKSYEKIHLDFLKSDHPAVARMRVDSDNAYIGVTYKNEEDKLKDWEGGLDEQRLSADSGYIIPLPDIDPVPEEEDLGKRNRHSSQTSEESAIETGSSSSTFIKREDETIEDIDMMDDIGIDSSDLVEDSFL
Method in brief: as §1

kinases [3] = biological target: T3, kinases (Homo sapiens, UniProt P36888, D835H)
T3 construct: purchased Eurofins/DiscoveRx; host or cells: E. coli BL21-derived host (T7 phage display) for most kinases; HEK-293 for the rest
T3 sequence (P36888 27-993 D835H): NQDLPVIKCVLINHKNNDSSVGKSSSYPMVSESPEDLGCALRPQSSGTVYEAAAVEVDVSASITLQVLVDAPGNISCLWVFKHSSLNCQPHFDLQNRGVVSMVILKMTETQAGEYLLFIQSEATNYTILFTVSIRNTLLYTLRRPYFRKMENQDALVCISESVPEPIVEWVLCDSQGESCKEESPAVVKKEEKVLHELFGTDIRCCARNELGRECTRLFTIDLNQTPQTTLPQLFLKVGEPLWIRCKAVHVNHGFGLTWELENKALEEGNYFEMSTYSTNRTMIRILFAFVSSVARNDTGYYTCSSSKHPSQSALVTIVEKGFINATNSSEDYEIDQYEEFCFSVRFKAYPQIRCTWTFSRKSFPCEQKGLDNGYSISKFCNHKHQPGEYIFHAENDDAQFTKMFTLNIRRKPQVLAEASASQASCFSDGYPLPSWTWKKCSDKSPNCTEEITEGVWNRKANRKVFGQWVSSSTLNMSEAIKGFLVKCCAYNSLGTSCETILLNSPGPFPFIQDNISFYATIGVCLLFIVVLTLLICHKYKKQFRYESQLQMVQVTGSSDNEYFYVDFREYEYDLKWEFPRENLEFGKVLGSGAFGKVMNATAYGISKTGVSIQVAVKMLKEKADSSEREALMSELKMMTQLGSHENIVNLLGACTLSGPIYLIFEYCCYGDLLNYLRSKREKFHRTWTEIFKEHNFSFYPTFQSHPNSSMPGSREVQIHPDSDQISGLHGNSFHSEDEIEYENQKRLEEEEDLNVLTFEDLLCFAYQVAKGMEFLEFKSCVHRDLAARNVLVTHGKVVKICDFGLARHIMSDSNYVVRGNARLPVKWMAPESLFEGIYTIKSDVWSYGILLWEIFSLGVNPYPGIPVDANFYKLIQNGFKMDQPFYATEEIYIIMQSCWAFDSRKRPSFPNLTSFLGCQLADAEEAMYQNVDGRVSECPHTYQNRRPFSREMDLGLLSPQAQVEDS
Method in brief: as §1

kinases [4] = biological target: T4, kinases (Homo sapiens, UniProt P36888, D835Y)
T4 construct: purchased Eurofins/DiscoveRx; host or cells: E. coli BL21-derived host (T7 phage display) for most kinases; HEK-293 for the rest
T4 sequence (P36888 27-993 D835Y): T3 sequence (P36888 27-993 D835H) with H809Y
Method in brief: as §1

kinases [5] = test system: kinases
Method in brief: as §1

[6] = 1 μM; EGFR(L747-E749del, A750P)
[7] = 1 μM; EGFR(L747-S752del, P753S)

T1 sequence (P00533 25-1210): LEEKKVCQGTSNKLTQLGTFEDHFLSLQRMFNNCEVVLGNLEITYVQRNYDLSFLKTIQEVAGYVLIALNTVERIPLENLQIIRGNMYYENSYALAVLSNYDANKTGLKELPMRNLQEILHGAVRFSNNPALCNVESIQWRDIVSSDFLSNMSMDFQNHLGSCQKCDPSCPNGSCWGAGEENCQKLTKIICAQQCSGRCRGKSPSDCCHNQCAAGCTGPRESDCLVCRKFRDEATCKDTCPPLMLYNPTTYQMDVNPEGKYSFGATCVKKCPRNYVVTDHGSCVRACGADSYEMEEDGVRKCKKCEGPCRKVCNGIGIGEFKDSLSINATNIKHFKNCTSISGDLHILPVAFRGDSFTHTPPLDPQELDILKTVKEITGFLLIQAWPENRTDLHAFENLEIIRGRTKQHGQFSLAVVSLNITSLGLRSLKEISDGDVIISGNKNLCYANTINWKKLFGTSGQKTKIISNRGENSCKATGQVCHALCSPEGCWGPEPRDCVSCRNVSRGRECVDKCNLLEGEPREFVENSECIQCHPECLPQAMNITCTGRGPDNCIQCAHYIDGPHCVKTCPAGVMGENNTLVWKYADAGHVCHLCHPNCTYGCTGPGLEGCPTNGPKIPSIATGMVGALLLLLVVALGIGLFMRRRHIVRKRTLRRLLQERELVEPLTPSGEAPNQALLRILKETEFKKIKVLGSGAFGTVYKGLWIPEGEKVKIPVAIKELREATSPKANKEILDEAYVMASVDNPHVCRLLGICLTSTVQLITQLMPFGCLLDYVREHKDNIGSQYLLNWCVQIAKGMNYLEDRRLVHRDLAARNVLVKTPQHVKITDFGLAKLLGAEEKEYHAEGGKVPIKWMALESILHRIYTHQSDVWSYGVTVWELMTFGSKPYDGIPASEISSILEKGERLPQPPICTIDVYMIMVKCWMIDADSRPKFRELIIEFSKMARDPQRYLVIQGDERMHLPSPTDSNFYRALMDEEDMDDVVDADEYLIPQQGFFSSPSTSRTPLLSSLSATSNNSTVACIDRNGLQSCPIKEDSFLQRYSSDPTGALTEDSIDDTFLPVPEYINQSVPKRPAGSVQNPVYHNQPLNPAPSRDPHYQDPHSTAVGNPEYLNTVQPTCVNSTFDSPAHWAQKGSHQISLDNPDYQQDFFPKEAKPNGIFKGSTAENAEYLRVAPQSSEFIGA

| % Ctrl, EGFR (kinases [1]; 1 μM; EGFR) [% Ctrl] | % Ctrl, PDGFRA (kinases [2]; 1 μM; PDGFRA) [% Ctrl] | % Ctrl, FLT3(D835H) (kinases [3]; 1 μM; FLT3(D835H)) [% Ctrl] | % Ctrl, FLT3(D835Y) (kinases [4]; 1 μM; FLT3(D835Y)) [% Ctrl] | % Ctrl, EGFR(L747-E749del, A750P) (kinases [5]; [6]) [% Ctrl] | % Ctrl, EGFR(L747-S752del, P753S) (kinases [5]; [7]) [% Ctrl] | % Ctrl, EGFR(L747-T751del, Sins) (kinases [5]; 1 μM; EGFR(L747-T751del, Sins)) [% Ctrl] | % Ctrl, FLT3(ITD) (kinases [5]; 1 μM; FLT3(ITD)) [% Ctrl] | % Ctrl, FLT3(ITD, D835V) (kinases [5]; 1 μM; FLT3(ITD, D835V)) [% Ctrl] | % Ctrl, FLT3(ITD, F691L) (kinases [5]; 1 μM; FLT3(ITD, F691L)) [% Ctrl] | Structure (SMILES) | other results |
| --- | --- | --- | --- | --- | --- | --- | --- | --- | --- | --- | --- |
| 64 | 100 | 89 | 93 | 73 | 95 | 81 | 100 | 71 | 100 | Cc1cc2c([nH]1)/C=C1\C(=O)Nc3ccc(nc31)-c1ccccc1OCCCNC2=O [Ex.22, [3a(4)Z]-6-methyl-9,10,11,12-tetrahydro-1,18-(ethanediylidene)dipyrrolo[3,2-g:3′,4′-j][1,5,12]benzoxadiazacyclopentadecine-3,8(2H,5H)-dione] | – |
| – | – | – | – | – | – | – | – | – | – | CN1CCSCCOc2cc3c(cc2Cl)NC(=O)/C3=C\c2[nH]ccc2C1=O [Ex. 153] | % Ctrl, EGFR (kinases [1]; target EGFR; 1 μM): 61 % Ctrl; % Ctrl, PDGFRA (kinases [2]; target PDGFRA; 1 μM): 9.1 % Ctrl; % Ctrl, FLT3(D835H) (kinases [3]; target FLT3(D835H); 1 μM): 0.3 % Ctrl; % Ctrl, FLT3(D835Y) (kinases [4]; target FLT3(D835Y); 1 μM): 1.7 % Ctrl; % Ctrl, EGFR(L747-E749del, A750P) (kinases [5]; target EGFR(L747-E749del, A750P); 1 μM): 85 % Ctrl; % Ctrl, EGFR(L747-S752del, P753S) (kinases [5]; target EGFR(L747-S752del, P753S); 1 μM): 57 % Ctrl; % Ctrl, EGFR(L747-T751del, Sins) (kinases [5]; target EGFR(L747-T751del, Sins); 1 μM): 38 % Ctrl; % Ctrl, FLT3(ITD) (kinases [5]; target FLT3(ITD); 1 μM): 0.5 % Ctrl; % Ctrl, FLT3(ITD, D835V) (kinases [5]; target FLT3(ITD, D835V); 1 μM): 0.5 % Ctrl; % Ctrl, FLT3(ITD, F691L) (kinases [5]; target FLT3(ITD, F691L); 1 μM): 0.5 % Ctrl |
| 100 | 72 | 53 | 14 | 100 | 100 | 100 | 44 | 9.1 | 29 | Cc1cc2c([nH]1)/C=C1\C(=O)Nc3cc(Cl)c(cc31)OCCO[C@@H](C(=O)N(C)C)CN(C)C2=O [Ex. 137, [7R,16a(17)Z]-19-chloro-N,N,2,5-tetramethyl-4,16-dioxo-4,5,6,7,9,10,15,16-octahydro-1H-12,14-(ethanediylidene)dipyrrolo[3,2-i:3′,4′-l][1,4,7]dioxazacyclopentadecine-7-carboxamide] | – |
| – | – | – | – | – | – | – | – | – | – | Cc1cc2c([nH]1)/C=C1\C(=O)Nc3ccc(cc31)-c1c(noc1C(C)C)COCCN(C)C2=O [Ex. 161, [3a(4)Z]-9-methyl-16-(propan-2-yl)-10,11-dihydro-2H,13H-1,17-(ethanediylidene)[1,2]oxazolo[4,3-m]dipyrrolo[3,2-f:3′,4′-i][1,4]oxazacyclopentadecine-3,8(5H,9H)-dione] | % Ctrl, EGFR (kinases [1]; 1 μM; target EGFR): 73 % Ctrl; % Ctrl, PDGFRA (kinases [2]; 1 μM; target PDGFRA): 100 % Ctrl; % Ctrl, FLT3(D835H) (kinases [3]; 1 μM; target FLT3(D835H)): 48 % Ctrl; % Ctrl, FLT3(D835Y) (kinases [4]; 1 μM; target FLT3(D835Y)): 36 % Ctrl; % Ctrl, EGFR(L747-E749del, A750P) (kinases [5]; 1 μM; target EGFR(L747-E749del, A750P)): 100 % Ctrl; % Ctrl, EGFR(L747-S752del, P753S) (kinases [5]; 1 μM; target EGFR(L747-S752del, P753S)): 80 % Ctrl; % Ctrl, EGFR(L747-T751del, Sins) (kinases [5]; 1 μM; target EGFR(L747-T751del, Sins)): 93 % Ctrl; % Ctrl, FLT3(ITD) (kinases [5]; 1 μM; target FLT3(ITD)): 85 % Ctrl; % Ctrl, FLT3(ITD, D835V) (kinases [5]; 1 μM; target FLT3(ITD, D835V)): 83 % Ctrl; % Ctrl, FLT3(ITD, F691L) (kinases [5]; 1 μM; target FLT3(ITD, F691L)): 82 % Ctrl |
